Test results: ChEMBL document CHEMBL4049405, “Investigation on cellular uptake and pharmacodynamics of DOCK2-inhibitory peptides conjugated with cell-penetrating peptides” (Bioorg Med Chem, 2017)
The source made the active and inactive calls. The rule behind the calls is not given here. Positions of bridges follow the written chain, without caps; N, C: chain ends. Non-standard residues stand in square brackets, D forms with d. Residues, ends and D or L forms follow the SMILES beside them. *: point of attachment. X2 = CC(=O)[C@H]1CSC(c2nc3ccc(OC(=O)OCCCS*)cc3s2)=N1; Nle = CCCC[C@H](N)C(=O)O

What was measured:
[1] = target: T1, Dedicator of cytokinesis protein 2 (Homo sapiens, UniProt Q92608); assay: Inhibition of GST-fused Rac1 (unknown origin) binding to recombinant N-terminal trigger factor/C-terminal SBP-tagged DOCK2 DHR-2 binding domain (unknown origin) expressed in mammalian cells assessed as reduction in Rac GEF activity pretreated for 1 hr followed by GST-fused Rac1 addition after 1 hr by ELISA; assay type: cell-based
in vitro [2] = settings: human, HEK293T cells
Description: Cytotoxicity against HEK293T cells assessed as cell viability at 25 uM by CellTiter-Glo assay relative to control

in vitro [3] = settings: human, HEK293T cells; remark: listed apart in the source
Description: Cytotoxicity against HEK293T cells assessed as cell viability at 6.3 uM by CellTiter-Glo assay relative to control

in vitro [4] = settings: human, HEK293T cells; remark: listed apart in the source
Description: Cytotoxicity against HEK293T cells assessed as cell viability at 12.5 uM by CellTiter-Glo assay relative to control

[5] = Cytotoxicity against HEK293T cells assessed as cell viability at 50 uM by CellTiter-Glo assay relative to control; settings: human
[6] = Drug uptake in HEK293T cells expressing luciferase reporter gene at 50 uM measured every 3 mins for 60 mins by luminescence assay relative to 50 uM luciferin; assay type: ADME, cell-based; settings: human, hek-293t, 1 h
[7] = target: T1, Dedicator of cytokinesis protein 2; assay: Inhibition of Rac1 binding to biotinylated DOCK2 (unknown origin) by ELISA
Mino [8] = assay: (§1) Antimigratory activity against human Mino cells assessed as inhibition of S1P stimulated cell migration at 10 uM measured after 30 mins by Cell-titer Glo assay relative to control; assay type: functional
Mino [9] = assay: Antimigratory activity against human Mino cells assessed as inhibition of S1P stimulated cell migration at 1.1 uM measured after 30 mins by Cell-titer Glo assay; assay type: functional, cell-based
Mino [10] = assay: (§2) Antimigratory activity against human Mino cells assessed as inhibition of S1P stimulated cell migration at 3.3 uM measured after 30 mins by Cell-titer Glo assay relative to control; assay type: functional
[11] = as §2; assay type: functional; settings: 0.5 h
[12] = as §1; assay type: functional; settings: 0.5 h
[13] = target: T1, Dedicator of cytokinesis protein 2; assay: Inhibition of Rac1 binding to DOCK2 (unknown origin) by ELISA
[14] = target: T1, Dedicator of cytokinesis protein 2; assay: Inhibition of DOCK2 (unknown origin) GEF activity

T1 sequence (Q92608 whole entry, the tested form may be a part): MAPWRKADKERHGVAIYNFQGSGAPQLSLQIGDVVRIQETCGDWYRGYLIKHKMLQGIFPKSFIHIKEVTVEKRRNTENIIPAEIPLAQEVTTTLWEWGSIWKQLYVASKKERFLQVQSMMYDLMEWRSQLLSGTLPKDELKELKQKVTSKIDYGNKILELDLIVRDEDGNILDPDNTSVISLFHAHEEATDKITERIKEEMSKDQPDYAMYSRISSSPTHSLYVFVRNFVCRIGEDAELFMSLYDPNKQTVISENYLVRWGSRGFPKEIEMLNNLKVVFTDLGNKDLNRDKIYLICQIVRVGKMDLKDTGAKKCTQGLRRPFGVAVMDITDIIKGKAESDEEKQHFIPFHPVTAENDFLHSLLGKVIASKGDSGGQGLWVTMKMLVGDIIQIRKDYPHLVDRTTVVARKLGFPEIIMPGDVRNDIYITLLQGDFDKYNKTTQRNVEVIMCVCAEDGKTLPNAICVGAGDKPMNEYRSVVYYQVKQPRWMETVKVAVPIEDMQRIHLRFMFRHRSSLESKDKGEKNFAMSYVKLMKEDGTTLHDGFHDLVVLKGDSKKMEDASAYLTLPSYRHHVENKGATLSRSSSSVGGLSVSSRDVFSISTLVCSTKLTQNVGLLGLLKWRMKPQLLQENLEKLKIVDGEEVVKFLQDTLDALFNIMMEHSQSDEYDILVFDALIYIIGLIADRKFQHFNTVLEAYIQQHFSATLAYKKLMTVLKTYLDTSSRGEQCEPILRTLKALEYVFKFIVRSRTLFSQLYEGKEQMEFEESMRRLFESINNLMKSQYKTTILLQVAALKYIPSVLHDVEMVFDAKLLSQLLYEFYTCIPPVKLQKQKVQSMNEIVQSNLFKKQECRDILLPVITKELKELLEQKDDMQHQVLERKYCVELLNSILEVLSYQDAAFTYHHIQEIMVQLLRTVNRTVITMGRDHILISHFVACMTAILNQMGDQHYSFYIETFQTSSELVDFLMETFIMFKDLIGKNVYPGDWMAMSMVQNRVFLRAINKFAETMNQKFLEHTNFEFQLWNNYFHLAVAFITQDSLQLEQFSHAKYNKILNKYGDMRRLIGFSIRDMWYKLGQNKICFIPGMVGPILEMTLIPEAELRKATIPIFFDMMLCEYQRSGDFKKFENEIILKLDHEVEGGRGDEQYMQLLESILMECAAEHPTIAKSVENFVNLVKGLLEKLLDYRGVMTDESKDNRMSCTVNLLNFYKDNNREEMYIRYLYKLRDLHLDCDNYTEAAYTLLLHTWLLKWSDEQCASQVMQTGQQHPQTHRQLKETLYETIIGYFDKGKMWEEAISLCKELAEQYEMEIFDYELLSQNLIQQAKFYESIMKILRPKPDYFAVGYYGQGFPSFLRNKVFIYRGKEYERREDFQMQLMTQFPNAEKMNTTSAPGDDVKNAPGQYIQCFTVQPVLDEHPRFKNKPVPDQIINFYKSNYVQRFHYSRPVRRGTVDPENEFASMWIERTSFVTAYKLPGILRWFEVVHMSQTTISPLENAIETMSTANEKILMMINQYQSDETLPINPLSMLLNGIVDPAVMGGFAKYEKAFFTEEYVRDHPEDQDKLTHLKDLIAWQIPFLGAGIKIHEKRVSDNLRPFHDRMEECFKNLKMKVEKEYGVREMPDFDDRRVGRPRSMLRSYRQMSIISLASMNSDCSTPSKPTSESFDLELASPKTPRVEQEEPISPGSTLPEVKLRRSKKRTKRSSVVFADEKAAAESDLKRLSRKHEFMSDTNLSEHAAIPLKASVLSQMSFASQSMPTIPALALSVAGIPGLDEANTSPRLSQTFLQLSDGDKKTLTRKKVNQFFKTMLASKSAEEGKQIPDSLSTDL

Compound `O=C1NN(c2ccccc2)C(=O)/C1=C/C=C/c1ccccc1Cl` has an IC50 [1] of 22800 nM.
For `CC(=O)N[C@@H](CSSCCCOC(=O)Oc1ccc2nc(C3=N[C@@H](C(C)=O)CS3)sc2c1)C(=O)N[C@H]1CSSC[C@@H](C(=O)N[C@@H](CCCNC(=N)N)C(=O)N[C@@H](CCCNC(=N)N)C(=O)N[C@@H](CCCNC(=N)N)C(=O)N[C@H](C(=O)N[C@@H](CCCNC(=N)N)C(=O)N[C@H](C(=O)N[C@@H](CC(C)C)C(=O)N[C@@H](CCCCN)C(=O)N[C@@H](CCCNC(=N)N)C(=O)N[C@@H](Cc2c[nH]c3ccccc23)C(=O)N[C@@H](CCCCN)C(=O)N[C@@H](CC(C)C)C(=O)N[C@@H](Cc2ccccc2)C(N)=O)C(C)C)[C@@H](C)O)NC(=O)[C@H](Cc2c[nH]c3ccccc23)NC(=O)[C@@H]2CCCN2C(=O)[C@H](Cc2ccc(O)cc2)NC(=O)CNC(=O)[C@H](Cc2cnc[nH]2)NC(=O)[C@H](Cc2ccc(O)cc2)NC(=O)[C@H](CCCCN)NC(=O)[C@H](C)NC(=O)[C@H](C(C)C)NC1=O` (Ac-C(X2)CVAKYHGYPWCRRRTRVLKRWKLF-NH2; disulfide 2-12), the viability at 25 µM (in vitro [2]) was 97.1%, the viability at 6.3 µM (in vitro [3]) was 99.1% and the viability at 12.5 µM (in vitro [4]) was 108%. The viability at 50 µM [5] was 85.9% and the “fold change (FC)” value [6] was 66.8.
In the case of `CC(=O)N[C@H]1CSSC[C@@H](C(=O)N[C@@H](CCCNC(=N)N)C(=O)N[C@@H](CCCNC(=N)N)C(=O)N[C@@H](CCCNC(=N)N)C(N)=O)NC(=O)[C@H](Cc2c[nH]c3ccccc23)NC(=O)[C@@H]2CCCN2C(=O)[C@H](Cc2ccc(O)cc2)NC(=O)CNC(=O)[C@H](Cc2cnc[nH]2)NC(=O)[C@H](Cc2ccc(O)cc2)NC(=O)[C@H](CCCCN)NC(=O)[C@H](C)NC(=O)[C@H](C(C)C)NC1=O` (Ac-CVAKYHGYPWCRRR-NH2; disulfide 1-11), the IC50 [7] is reported as 11 nM, the inhibition (Mino [8]) is reported as “Active” and the inhibition (Mino [9]) is reported as “Active”.
For `CC(=O)N[C@H]1CSSC[C@@H](C(=O)N[C@@H](CCCNC(=N)N)C(=O)N[C@@H](CCCNC(=N)N)C(=O)N[C@@H](CCCNC(=N)N)C(=O)N[C@@H](C)C(=O)N[C@@H](CC(C)C)C(=O)N[C@@H](Cc2c[nH]c3ccccc23)C(=O)N[C@@H](CCCCN)C(=O)N[C@H](C(=O)N[C@@H](CC(C)C)C(=O)N[C@@H](CC(C)C)C(=O)N[C@@H](CCCCN)C(=O)N[C@@H](CCCCN)C(=O)N[C@H](C(=O)N[C@@H](CC(C)C)C(=O)N[C@@H](CCCCN)C(=O)N[C@@H](C)C(=O)N2CCC[C@H]2C(=O)N[C@@H](CCCCN)C(=O)N[C@@H](CCCCN)C(=O)N[C@@H](CCCCN)C(=O)N[C@@H](CCCNC(=N)N)C(=O)N[C@@H](CCCCN)C(=O)N[C@H](C(N)=O)C(C)C)C(C)C)[C@@H](C)O)NC(=O)[C@H](Cc2c[nH]c3ccccc23)NC(=O)[C@@H]2CCCN2C(=O)[C@H](Cc2ccc(O)cc2)NC(=O)CNC(=O)[C@H](Cc2cnc[nH]2)NC(=O)[C@H](Cc2ccc(O)cc2)NC(=O)[C@H](CCCCN)NC(=O)[C@H](C)NC(=O)[C@H](C(C)C)NC1=O` (Ac-CVAKYHGYPWCRRRALWKTLLKKVLKAPKKKRKV-NH2; disulfide 1-11), the IC50 [7] was 71 nM, the inhibition (Mino [10]) was “Active” and the inhibition (Mino [9]) was “Active”.
With `CCCC[C@H](NC(=O)[C@H](CCCNC(=N)N)NC(=O)[C@H](CCCNC(=N)N)NC(=O)[C@H](CC(N)=O)NC(=O)[C@H](CCC(N)=O)NC(=O)[C@H](Cc1ccccc1)NC(=O)[C@H](Cc1c[nH]c2ccccc12)NC(=O)[C@@H](NC(=O)[C@H](CCCCN)NC(=O)[C@@H](NC(=O)[C@H](CCC(N)=O)NC(=O)[C@H](CCCNC(=N)N)NC(=O)[C@H](CCCNC(=N)N)NC(=O)[C@H](CCCNC(=N)N)NC(=O)[C@H](CCCNC(=N)N)NC(=O)[C@@H]1CSSC[C@H](NC(C)=O)C(=O)N[C@@H](C(C)C)C(=O)N[C@@H](C)C(=O)N[C@@H](CCCCN)C(=O)N[C@@H](Cc2ccc(O)cc2)C(=O)N[C@@H](Cc2cnc[nH]2)C(=O)NCC(=O)N[C@@H](Cc2ccc(O)cc2)C(=O)N2CCC[C@H]2C(=O)N[C@@H](Cc2c[nH]c3ccccc23)C(=O)N1)[C@@H](C)CC)[C@@H](C)CC)C(=O)N[C@@H](CCCCN)C(=O)N[C@@H](Cc1c[nH]c2ccccc12)C(=O)N[C@@H](CCCCN)C(=O)N[C@@H](CCCCN)C(N)=O` (Ac-CVAKYHGYPWCRRRRQIKIWFQNRR[Nle]KWKK-NH2; disulfide 1-11) the IC50 [7] was 95 nM, the inhibition (Mino [10]) was “Active” and the inhibition (Mino [9]) was “Active”.
For `CC(=O)N[C@H]1CSSC[C@@H](C(=O)N[C@@H](CCCNC(=N)N)C(=O)N[C@@H](CCCNC(=N)N)C(=O)N[C@@H](CCCNC(=N)N)C(=O)N[C@@H](CCCNC(=N)N)C(=O)N[C@@H](CCCNC(=N)N)C(=O)N[C@@H](CCCNC(=N)N)C(=O)N[C@@H](CCCNC(=N)N)C(=O)N[C@@H](CCCNC(=N)N)C(N)=O)NC(=O)[C@H](Cc2c[nH]c3ccccc23)NC(=O)[C@@H]2CCCN2C(=O)[C@H](Cc2ccc(O)cc2)NC(=O)CNC(=O)[C@H](Cc2cnc[nH]2)NC(=O)[C@H](Cc2ccc(O)cc2)NC(=O)[C@H](CCCCN)NC(=O)[C@H](C)NC(=O)[C@H](C(C)C)NC1=O` (Ac-CVAKYHGYPWCRRRRRRRR-NH2; disulfide 1-11), the IC50 [7] was 8 nM, the inhibition at 3.3 µM [11] was > 89% and the inhibition at 10 µM [12] was > 89%. For the same compound, the inhibition (Mino [9]) was “Active”.
In the case of `CC(=O)N[C@H]1CSSC[C@@H](C(=O)N[C@@H](CCCNC(=N)N)C(=O)N[C@@H](CCCNC(=N)N)C(=O)N[C@@H](CCCNC(=N)N)C(=O)N[C@H](C(=O)N[C@@H](CCCNC(=N)N)C(=O)N[C@H](C(=O)N[C@@H](CC(C)C)C(=O)N[C@@H](CCCCN)C(=O)N[C@@H](CCCNC(=N)N)C(=O)N[C@@H](Cc2c[nH]c3ccccc23)C(=O)N[C@@H](CCCCN)C(=O)N[C@@H](CC(C)C)C(=O)N[C@@H](Cc2ccccc2)C(N)=O)C(C)C)[C@@H](C)O)NC(=O)[C@H](Cc2c[nH]c3ccccc23)NC(=O)[C@@H]2CCCN2C(=O)[C@H](Cc2ccc(O)cc2)NC(=O)CNC(=O)[C@H](Cc2cnc[nH]2)NC(=O)[C@H](Cc2ccc(O)cc2)NC(=O)[C@H](CCCCN)NC(=O)[C@H](C)NC(=O)[C@H](C(C)C)NC1=O` (Ac-CVAKYHGYPWCRRRTRVLKRWKLF-NH2; disulfide 1-11), the IC50 [7] is reported as 31 nM, the inhibition at 3.3 µM [11] is reported as > 89% and the inhibition at 10 µM [12] is reported as > 89%. The inhibition (Mino [9]) was “Active”.
In the case of `CC(C)C[C@H](N)C(=O)N[C@@H](CC(N)=O)C(=O)N[C@@H](CCCNC(=N)N)C(=O)N[C@H]1CSSC[C@@H](C(=O)N[C@@H](CCCNC(=N)N)C(=O)N[C@@H](CCCNC(=N)N)C(=O)N[C@@H](CCCNC(=N)N)C(=O)O)NC(=O)[C@H](Cc2c[nH]c3ccccc23)NC(=O)[C@@H]2CCCN2C(=O)[C@H](Cc2ccc(O)cc2)NC(=O)CNC(=O)[C@H](Cc2cnc[nH]2)NC(=O)[C@H](Cc2ccc(O)cc2)NC(=O)[C@H](CCCCN)NC(=O)[C@H](C)NC(=O)[C@H](C(C)C)NC1=O` (H-LNRCVAKYHGYPWCRRR-OH; disulfide 4-14), the IC50 [13] is reported as 6 nM and the IC50 [14] is reported as 35 nM.
